IC50 data for eleven compounds are collected here from patent US11352340B2, “Pyridine and pyridimine compounds as PI3K-gamma inhibitors” (Incyte Corporation, priority 2016, dated 2022).

Counter-ions that a name gives are not always drawn.

The target of test [1] is PI3Kδ (p110δ/p85α) Recombinant Human Protein (Homo sapiens (Human), UniProt O00329). In words: PI3Kδ Scintillation Proximity Assay. It counts as biochemical. The conditions noted are these: read-out: PI3K-delta SPA IC50. The gist of the method:
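Recombinant human p110δ/p85α (3.4 nM) phosphorylates 20 μM di-octanoyl PIP2 using 2 μM ATP spiked with [γ-33P]ATP, 120 min, room temperature, pH 6.7, 2% DMSO. Product measured by scintillation proximity; IC50 from dose-response fit.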

The subject of test [2] is Phosphorylated Ribosomal Protein S6 (RPS6) in THP-1 cells. In words: THP-1 RPS6 ELISA Assay. The class given is cell-based, Human. To be noted: Homo sapiens, MCP-1 stimulated, phospho-RPS6 ELISA, read-out: THP p-RPS6 ELISA IC50. In outline: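 Serum-starved THP-1 cells (2×10^5/well, RPMI) preincubated with compound 2 h at 37° C, then stimulated with 10 nM MCP-1 for 15 min. Lysates assayed by phospho-RPS6 ELISA, absorbance 450 nm (540 nm correction); IC50 from percent inhibition versus log concentration.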

Test [3] deals with PI3Kγ (p110γ) Recombinant Human Protein (Homo sapiens (Human), UniProt P48736). In words: PI3K-γ Scintillation Proximity Assay. To be noted: read-out: PI3K-gamma SPA IC50. The class given is biochemical. The gist of the method: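 Recombinant human p110γ (13 nM) with 20 μM PIP2 and 2 μM ATP plus 0.5 μCi [γ-33P]ATP in 20 mM MOPS pH 6.7, 10 mM MgCl2, 5 mM DTT, 0.03% CHAPS, 2% DMSO, 120 min at room temperature. Product captured on WGA SPA beads and counted; IC50 fitted from % of solvent control versus log concentration.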
Chain of PI3Kγ (p110γ) Recombinant Human Protein (P48736 whole entry): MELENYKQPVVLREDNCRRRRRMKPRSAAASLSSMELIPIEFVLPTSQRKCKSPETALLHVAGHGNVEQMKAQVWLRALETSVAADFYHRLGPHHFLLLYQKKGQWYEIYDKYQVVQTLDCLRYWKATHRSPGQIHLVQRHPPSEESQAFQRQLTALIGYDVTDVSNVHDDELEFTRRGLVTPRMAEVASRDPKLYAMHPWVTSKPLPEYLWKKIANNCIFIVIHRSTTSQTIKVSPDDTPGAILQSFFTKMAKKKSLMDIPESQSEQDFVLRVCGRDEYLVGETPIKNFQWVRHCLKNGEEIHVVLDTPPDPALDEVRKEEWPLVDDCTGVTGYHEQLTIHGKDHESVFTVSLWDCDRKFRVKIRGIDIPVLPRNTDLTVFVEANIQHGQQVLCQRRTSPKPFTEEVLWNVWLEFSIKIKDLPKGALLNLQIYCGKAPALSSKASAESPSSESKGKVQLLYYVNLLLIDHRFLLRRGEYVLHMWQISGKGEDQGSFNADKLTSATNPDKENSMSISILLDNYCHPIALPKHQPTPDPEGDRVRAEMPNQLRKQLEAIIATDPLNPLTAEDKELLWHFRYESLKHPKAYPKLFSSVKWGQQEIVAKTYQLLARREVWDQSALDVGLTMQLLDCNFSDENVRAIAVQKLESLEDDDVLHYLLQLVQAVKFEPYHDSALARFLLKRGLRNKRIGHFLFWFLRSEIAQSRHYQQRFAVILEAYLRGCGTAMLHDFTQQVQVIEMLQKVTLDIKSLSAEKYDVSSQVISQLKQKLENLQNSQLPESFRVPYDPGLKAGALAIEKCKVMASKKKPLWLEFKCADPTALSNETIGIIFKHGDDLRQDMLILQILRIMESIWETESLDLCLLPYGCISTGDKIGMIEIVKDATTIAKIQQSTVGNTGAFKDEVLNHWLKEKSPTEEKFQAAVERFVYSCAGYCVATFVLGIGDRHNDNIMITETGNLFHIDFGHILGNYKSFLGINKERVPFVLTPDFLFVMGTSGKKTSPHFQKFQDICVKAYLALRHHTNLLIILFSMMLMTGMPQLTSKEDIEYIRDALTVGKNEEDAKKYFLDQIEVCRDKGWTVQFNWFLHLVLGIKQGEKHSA
(In general: Scintillation proximity formats need no separation of bound from free tracer.)

Chain of PI3Kδ (p110δ/p85α) Recombinant Human Protein (O00329 whole entry): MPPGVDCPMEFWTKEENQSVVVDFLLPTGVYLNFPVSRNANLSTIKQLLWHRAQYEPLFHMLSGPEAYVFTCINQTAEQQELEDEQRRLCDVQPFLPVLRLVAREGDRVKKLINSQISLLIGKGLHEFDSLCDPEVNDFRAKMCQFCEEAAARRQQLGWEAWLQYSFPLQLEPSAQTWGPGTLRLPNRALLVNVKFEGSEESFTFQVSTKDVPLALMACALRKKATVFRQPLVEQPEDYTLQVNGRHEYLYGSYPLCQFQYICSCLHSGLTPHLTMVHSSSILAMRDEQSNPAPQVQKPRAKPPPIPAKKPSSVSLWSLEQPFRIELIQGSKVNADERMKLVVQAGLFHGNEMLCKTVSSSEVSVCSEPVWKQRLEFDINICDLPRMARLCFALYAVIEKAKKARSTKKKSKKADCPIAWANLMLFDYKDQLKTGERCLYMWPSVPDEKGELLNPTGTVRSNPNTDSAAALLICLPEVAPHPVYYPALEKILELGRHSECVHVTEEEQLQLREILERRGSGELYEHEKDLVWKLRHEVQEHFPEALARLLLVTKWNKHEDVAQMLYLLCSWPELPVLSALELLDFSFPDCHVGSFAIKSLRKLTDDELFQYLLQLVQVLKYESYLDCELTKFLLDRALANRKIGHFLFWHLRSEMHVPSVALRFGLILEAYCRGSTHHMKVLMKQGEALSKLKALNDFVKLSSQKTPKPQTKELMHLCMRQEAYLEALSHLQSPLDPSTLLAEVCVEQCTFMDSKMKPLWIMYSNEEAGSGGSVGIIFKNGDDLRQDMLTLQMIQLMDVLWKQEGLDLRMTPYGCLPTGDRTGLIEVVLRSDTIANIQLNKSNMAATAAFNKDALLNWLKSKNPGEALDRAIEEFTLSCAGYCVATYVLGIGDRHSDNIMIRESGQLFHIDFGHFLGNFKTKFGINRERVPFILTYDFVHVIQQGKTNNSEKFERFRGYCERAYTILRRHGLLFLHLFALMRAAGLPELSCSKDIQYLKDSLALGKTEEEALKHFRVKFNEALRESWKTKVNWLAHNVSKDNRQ
Chain of PI3Kδ (p110δ/p85α) Recombinant Human Protein (P27986 whole entry partner): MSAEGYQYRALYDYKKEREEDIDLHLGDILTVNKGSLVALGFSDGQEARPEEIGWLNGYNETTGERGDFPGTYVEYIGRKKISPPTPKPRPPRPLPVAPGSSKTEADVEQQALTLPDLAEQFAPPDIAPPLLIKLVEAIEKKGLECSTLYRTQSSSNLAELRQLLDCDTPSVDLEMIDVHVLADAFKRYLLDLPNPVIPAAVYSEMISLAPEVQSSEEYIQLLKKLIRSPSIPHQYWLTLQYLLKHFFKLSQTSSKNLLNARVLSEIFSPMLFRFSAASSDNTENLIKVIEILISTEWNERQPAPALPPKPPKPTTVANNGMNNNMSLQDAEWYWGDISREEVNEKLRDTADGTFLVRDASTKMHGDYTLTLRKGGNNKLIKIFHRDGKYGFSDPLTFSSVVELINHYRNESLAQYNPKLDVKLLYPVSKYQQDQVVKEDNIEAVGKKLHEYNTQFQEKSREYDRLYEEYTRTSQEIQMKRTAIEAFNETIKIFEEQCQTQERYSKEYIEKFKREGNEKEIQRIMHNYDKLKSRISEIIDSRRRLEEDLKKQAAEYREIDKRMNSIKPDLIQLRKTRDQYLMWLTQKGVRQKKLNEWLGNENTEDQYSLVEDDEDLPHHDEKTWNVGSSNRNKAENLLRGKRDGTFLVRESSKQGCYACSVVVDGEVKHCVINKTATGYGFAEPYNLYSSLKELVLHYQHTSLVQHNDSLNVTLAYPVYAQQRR

With `CCCCNc1nnc(-c2cc(-c3cncc(OC)c3)ccn2)[nH]1` [Example 66, N-Butyl-5-(5-methoxy-3,4′-bipyridin-2′-yl)-4H-1,2,4-triazol-3-amine Trifluoroacetate Salt], the IC50 was above 500 nM in test [1], above 5000 nM in test [2] and at most 500 nM in test [3].
Consider `Cc1[nH]c(-c2cc(-c3cnn(Cc4ccc(Cl)cc4)c3)ccn2)nc1C#N` [Example 297, 2-{4-[1-(4-Chlorobenzyl)-1H-pyrazol-4-yl]pyridin-2-yl}-5-methyl-1H-imidazole-4-carbonitrile Trifluoroacetate Salt], for which the IC50 in test [1] is above 500 nM; in test [2], above 5000 nM; in test [3], at most 50 nM.
Turning to `Cc1[nH]c(-c2cc(-c3cncc(N4CCOCC4)c3)ccn2)nc1C(=O)N[C@H]1CCOC1` [Example 271, 5-Methyl-2-(5-morpholin-4-yl-3,4′-bipyridin-2′-yl)-N-[(3S)-tetrahydrofuran-3-yl]-1H-imidazole-4-carboxamide trifluoroacetate salt], the figures for the IC50 in test [1], in test [2] and in test [3] were at most 50 nM, 300 to 1000 nM and at most 50 nM, respectively.
With `Cc1cnc(-c2cc(-c3cncc(S(C)(=O)=O)c3)ccn2)[nH]1` [Example 107, 2′-(5-Methyl-1H-imidazol-2-yl)-5-(methylsulfonyl)-3,4′-bipyridine trifluoroacetate salt], the IC50 in test [1] is at most 100 nM; in test [2], at most 300 nM; in test [3], at most 100 nM.
Consider `CCc1[nH]c(-c2cc(-c3cncc(N4CCOCC4)c3)ccn2)nc1C` [Example 105, 4-(2′-(5-Ethyl-4-methyl-1H-imidazol-2-yl)-3,4′-bipyridin-5-yl)morpholine], for which the IC50 was at most 100 nM in test [1], at most 300 nM in test [2] and at most 100 nM in test [3].
In the case of `c1ccc(-c2cnc(-c3cc(-c4cncc(NC5CCOCC5)c4)ccn3)[nH]2)cc1` [Example 142, 2′-(5-Phenyl-1H-imidazol-2-yl)-N-(tetrahydro-2H-pyran-4-yl)-3,4′-bipyridin-5-amine trifluoroacetate salt], the IC50 was at most 50 nM in test [1], above 5000 nM in test [2] and at most 50 nM in test [3].
For `Cc1[nH]c(-c2cc(-c3cnn(Cc4ccc(Cl)cc4)c3)ccn2)nc1C(=O)N[C@H]1CCOC1` [Example 295], the IC50 is at most 500 nM in test [1], 1000 to 5000 nM in test [2] and at most 50 nM in test [3].
For the compound `Cc1[nH]c(-c2cc(-c3cncc(N4CCOCC4)c3)ccn2)nc1C(=O)NC1CCCC1` [Example 258, N-Cyclopentyl-5-methyl-2-(5-morpholin-4-yl-3,4′-bipyridin-2′-yl)-1H-imidazole-4-carboxamide], the figures for the IC50 in test [1], in test [2] and in test [3] were at most 50 nM, at most 300 nM and at most 50 nM, respectively.
Consider `Cc1[nH]c(-c2cc(-c3cncc(N4CCOCC4)c3)ccn2)nc1C(=O)NC1C2CC3CC(C2)CC1C3` (stereo not drawn) [Example 278, N-2-Adamantyl-5-methyl-2-(5-morpholin-4-yl-3,4′-bipyridin-2′-yl)-1H-imidazole-4-carboxamide trifluoroacetate salt], for which the IC50 in test [1] is at most 50 nM; in test [2], 300 to 1000 nM; in test [3] it was at most 50 nM.
In the case of `CNc1nnc(-c2cc(-c3cncc(OC)c3)ccn2)[nH]1` [Example 68, 5-(5-Methoxy-3,4′-bipyridin-2′-yl)-N-methyl-4H-1,2,4-triazol-3-amine trifluoroacetate salt], the IC50 in test [1] was above 500 nM; in test [2] it was above 5000 nM; in test [3], at most 500 nM.
In the same order, the values of `CCC1CCN(C(=O)c2cncc(-c3ccnc(-c4nc(C)c(C)[nH]4)c3)c2)C1` (stereo not drawn) [Example 211, 2′-(4,5-Dimethyl-1H-imidazol-2-yl)-5-[(3-ethylpyrrolidin-1-yl)carbonyl]-3,4′-bipyridine trifluoroacetate salt] are at most 50 nM, at most 300 nM and at most 50 nM.
